Experimental findings from US7074765B2, “Synthetic peptide analogs of Arg-Pro-Pro-Gly-Phe as selective inhibitors of thrombin and thrombin activation of protease activated receptors 1 and 4” (The Regents of the University of Michigan, priority 2003, dated 2006) are described below.

Where only a bound is given, the exact number is not on record here.

In assay [1] the test system is platelets in platelet-rich plasma. Put plainly: γ-thrombin-induced platelet aggregation in platelet-rich plasma. It is filed as cell-based, human. The method, then: Fresh whole blood was collected and mixed with 0.013 M sodium citrate and platelet-rich plasma was prepared according to the method of Meloni et al., J. Biol. Chem. 266, 6786 (1991). Platelet-rich plasma with a normalized platelet count between 2–2.5×10^8 platelets/ml was added to a cuvette of an aggregometer (Chronlog Corp., Havertown, Pa.), standardized using the protocol of Meloni et al., supra. Peptides to be examined were added to the cuvette and the mixture stabilized for a few moments. Once the baseline was stabilized, γ-thrombin (10–70 nM) (Haematologic Technologies, Essex Junction, Vt.) was added to determine the minimal concentration of the agonist necessary to achieve full platelet aggregation. All investigations with peptides were performed using threshold concentrations of γ-thrombin. Aggregation was allowed to proceed for 5 minutes before stopping. When ADP-induced platelet aggregation studies were performed, 1–5 μM ADP (Sigma) was added to the cuvette containing platelet-rich plasma.

Assay [2] has as its system normal human citrated plasma. Put plainly: thrombin clotting time (TCT). It is filed as biochemical. The conditions noted are these: normal human plasma; p<0.05. The protocol: The influence of the various peptide formulations used in the present invention on established coagulation-based assays was determined. The activated partial thromboplastin time (APTT) is performed by mixing 0.05 ml normal human citrated plasma with 0.05 ml activated partial thromboplastin reagent purchased from Organon Teknika, Research Triangle Park, N.C. in the absence or presence of a peptide inhibitor. After incubation for 5 min at 37° C., the mixture is recalcified with 0.05 ml of 30 mM calcium chloride and the time to clot formation is measured in an Amelung KC4A instrument (Sigma Chemical Corp, St. Louis, Mo.) (Hasan et al. Thrombosis and Haemostasis. 82, 1182–1187 (1999)). The prothrombin time (PT) is performed by mixing 0.05 ml normal human citrated plasma with 0.05 ml Simplastin (Organon Teknika, Research Triangle Park, N.C.) followed by incubation for 3 min at 37° C. in the absence or presence of a peptide inhibitor. At the addition of 0.05 ml of 30 mM calcium chloride, the time to clot formation is measured in an KC4A instrument (Sigma Chemical Corp, St. Louis, Mo.) (Hasan et al. Thrombosis and Haemostasis. 82, 1182–1187 (1999)). The thrombin clotting time (TCT) is performed by adding 0.1 ml normal human citrated plasma in the absence or presence of a peptide inhibitor and 0.05 ml of a α-thrombin solution such that the final concentration of the thrombin in the entire mixture was 1 nM. Upon addition of the thrombin, the time to clot formation is measured in an KC4A instrument (Sigma Chemical Corp, St. Louis, Mo.). In FIG. 5, peptide TH146 produces a significant prolongation (p<0.05) of the activated partial thromboplastin time at 15 μM, of the prothrombin time at 60 μM, and the thrombin clotting time at 15 μM. In FIG. 6, peptide MAP4-TH146 produced a significant prolongation (p<0.05) of the activated partial thromboplastin time at 0.195 μM, of the prothrombin time at 3.125 μM, and the thrombin clotting time at 0.39 μM.

Assay [3] has as its system PC-3 cells. As to the kind of experiment: Thrombin-induced motility of prostate cancer cells (Boyden chamber). Type of assay: cell-based. The conditions noted are these: 100 μM; 2 nM α-thrombin. The protocol:
Motility assays are performed with a modified Boyden chamber (tissue culture-treated, 6.5 mm diameter, 10 μm thickness, 8 μm pores). In the motility assays, 2.5×10^4 cells are plated in the top chamber of non-coated polyethylene teraphthalate (PET) membranes (24-well insert, pore size […]; Becton Dickinson). […] RPMI 10% fetal bovine serum is used as a chemoattractant in the lower chamber. […] The cells that transverse the membranes are stained with Dip-Quick (Jorgensen Laboratories, Loveland, Colo.). Cells in five random fields of view at 200× are counted and expressed as the average number of cells/field of view. […]

As for “β-Ala-Lys-2Lys-4(D-Arg-Oic-Pro-Gly-Phe) [MAP4-rOicPGF]”, the “concentration that abolished γ-thrombin-induced platelet aggregation” value in assay [1] (40 nM γ-thrombin) is at least 0.0125 mM. Also, the “effect on γ-thrombin-induced platelet aggregation” value in assay [1] (0.006 mM peptide, 40 nM γ-thrombin) was “returned to pretreatment levels”; in assay [1] (0.05 mM peptide, 40 nM γ-thrombin) it was “completely abolished”. The “Concentration of Peptide [mM] That Gives 100% Inhibition” value in assay [1] (minimal concentration that blocked γ-thrombin-induced platelet aggregation in platelet-rich plasma) is 0.019 mM. Further, in assay [2], the “concentration giving significant prolongation of the TCT” value was 0.39 µM. In addition, the “effect on thrombin-induced PC-3 cell motility” value in assay [3] is given as “block”.
